The text below walks through data of US20050049299A1, “Selective inhibitors of stat-3 activation and uses thereof” (priority 2003, published 2005).

SMILES strings stand for the structures.

Common to all, as to format: cell-based, human
Assay [1] deals with STAT3 phosphorylation. Briefly: Constitutive STAT3 phosphorylation in U266 cells (Western blot). As to the method:
U266 cells (2×10^6) were treated with the indicated concentrations of curcumin for 1 h, or treated with 50 μM curcumin for the indicated durations and levels of phosphorylated-STAT3 (upper panel) and STAT3 (lower panel) were examined in whole cell extracts by Western Blotting. […] U266 cells (2×10^6) were treated with 50 μM curcumin for indicated durations, and examined for phosphorylated and nonphosphorylated-STAT3, and STAT5. […] U266 cells (2×10^6) were preincubated with curcumin (50 μM) for indicated durations before treatment with IFN-α (10 ng/ml) for additional 30 min and then examined for phosphorylated and nonphosphorylated-STAT1.
U266 cells (2×10^6 cells) were treated with 50 μM curcumin for the indicated durations (left panels) or treated for 1 h and washed with PBS two times to remove curcumin before resuspending in fresh medium. Cells were removed at indicated times and lysed to prepare the whole cell extract (right panels). Thirty micrograms of whole cell extracts were resolved on 7.5% SDS-PAGE, electrotransferred to a nitrocellulose membrane, probed for the phosphorylated-STAT3 (upper panels) and stripped and reprobed for STAT3 (middle panels) and β-actin (lower panels).
Thirty micrograms of whole-cell extract was resolved on 7.5% SDS-PAGE, electrotransferred to a nitrocellulose membrane, probed for the phospho-STAT3 (upper panel), stripped, and reprobed for STAT3 (middle panel) and β-actin (lower panel).
For detection of STAT proteins, whole-cell extracts were prepared by lysing the curcumin-treated cells in lysis buffer (20 mM Tris, pH 7.4, 250 mM NaCl, 2 mM EDTA, pH 8.0, 0.1% Triton-X100, 0.01 mg/ml aprotinin, 0.005 mg/ml leupeptin, 0.4 mM PMSF, and 4 mM NaVO4). Lysates were then spun at 14000 rpm for 10 min to remove insoluble material, and resolved on a 7.5% gel. After electrophoresis, the proteins were electrotransferred to a nitrocellulose membrane, blocked with 5% nonfat milk, and probed with anti-STAT antibodies (1:1000) overnight at 4° C. The blot was washed, exposed to HRP-conjugated secondary antibodies for 1 h, and finally examined by chemiluminescence (ECL, Amersham Pharmacia Biotech. Arlington Heights, Ill.).
Whether curcumin inhibits the constitutive STAT3 phosphorylation in U266 was investigated. U266 cells were incubated either with different concentrations of curcumin for 1 h or with 50 μM curcumin for different times. Curcumin inhibited the constitutively active STAT3 in a dose-(FIG. 1A) and time-(FIG. 1B) dependent manner. Curcumin-induced inhibition could be observed as early as 10 min and with a concentration as low as 10 μM.
Whether curcumin-induced inhibition of STAT3 phosphorylation was reversible was further examined. U266 cells were first treated for 60 min with curcumin, and then the cells were washed twice with PBS to remove curcumin. The cells were then cultured in the fresh medium for various durations, and the levels of phosphorylated STAT3 were measured.
In comparison, treatment of cells with 50 μM curcumin for 60 minutes was sufficient to inhibit STAT3 phosphorylation (see FIGS. 1A and 1B).
A general note: In western blotting, separated proteins are transferred to a membrane and probed.

The test system of the next assay is multiple myeloma cells. Briefly: Proliferation of multiple myeloma cells, curcumin vs AG490 (data not shown). To be noted: 100 μM, 24 hours (data not shown).
Assay [2] has as its system STAT3 phosphorylation. The experiment in a line: Constitutive STAT3 phosphorylation in MDA 1986LN cells (Western blot). To be noted: AG490 100 μM, 8 hrs. Here is the method:
TU167, MDA 1986LN, TU 686, MDA 686LN and JMAR cells (2×10^6 cells) were lysed and whole cell extracts (30 μg) were resolved on 7.5% SDS-PAGE, electrotransferred to a nitrocellulose membrane and probed for phosphorylated-STAT3 (p-STAT3) and total STAT3 proteins. […] MDA 1986LN cells (2×10^6 cells) were treated with curcumin (50 μM) for indicated durations or with indicated concentrations of curcumin for 1 h and levels of p-STAT3 (upper panels) and STAT3 (lower panels) were examined in whole cell extracts by Western blotting.
MDA 1986LN cells (2×10^6 cells) were treated with curcumin (50 μM) for the indicated durations (upper panels) or treated for 1 h and washed twice with PBS to remove curcumin before re-suspending in fresh medium. Cells were removed at indicated times and lysed to prepare the whole cell extract (lower panels). The whole cell extracts (30 μg) were resolved on 7.5% SDS-PAGE, electrotransferred to a nitrocellulose membrane, probed for the p-STAT3 (upper panels) and striped and reprobed for STAT3 (lower panels).
MDA 1986LN cells (2×10^6 cells) were treated with indicated concentrations of AG490 for 8 h and whole extracts prepared. These whole-cell extracts (30 μg) were resolved on 7.5% SDS-PAGE, electrotransferred to a nitrocellulose membrane, probed for p-STAT3 (upper panel), striped and reprobed for STAT3 (middle panel) and β-actin (lower panel). […] The cells were treated with AG490 (100 μM) for the indicated durations and whole cell extracts prepared and analyzed as mentioned earlier. FIG. 15C compares the effect of curcumin and AG490 on proliferation of MDA 1986LN cells by MTT assay.
Since STAT3 was constitutively phosphorylated in MDA 1986LN cells, the ability of curcumin to inhibit the constitutive STAT3 phosphorylation was examined. MDA 1986LN cells were treated either with curcumin (50 μM) for different durations or with different concentrations of curcumin for 1 h and the p-STAT3 levels and STAT3 levels were determined. Curcumin inhibited the constitutively active STAT3 in a time-(FIG. 11B) and a dose-(FIG. 11C) manner. This curcumin-induced inhibition could be observed as early as 30 min and with a concentration as low as 25 μM.
MDA 1986LN cells were treated with curcumin for indicated times or for 1 h and the cells were washed twice with PBS to remove curcumin. The cells were then cultured in media for various durations and the levels of phosphorylated STAT3 were determined. […] However, the STAT3 levels were unaffected by curcumin treatment.
The concentration and the exposure time for AG490 to inhibit STAT3 phosphorylation in MDA 1986LN cells were determined. These cells were incubated with either different concentrations of AG490 or with 100 μM of AG490 for different durations and the levels of p-STAT3 and STAT3 were assessed.

In assay [3] the test system is STAT3 phosphorylation. Briefly: Constitutive STAT3 phosphorylation in U266 cells (Western blot). The source holds these as a separate data set.

Consider `N#C/C(=C/c1ccc(O)c(O)c1)C(=O)NCc1ccccc1` [AG490], for which the “dose needed to suppress STAT3 phosphorylation (comparison AG490 vs curcumin)” value with STAT3 phosphorylation [1] came to 100 µM. Also, in the assay with multiple myeloma cells, the “proliferation of multiple myeloma cells” value is “no effect”. The “inhibition of STAT3 phosphorylation” value with STAT3 phosphorylation [2] is “completely inhibited”. In the assay on STAT3 phosphorylation [3] (100 μM AG490), the “exposure needed to completely inhibit STAT3 phosphorylation” value stood at 8 h. Also, in the assay with STAT3 phosphorylation [3] (8 h), the “dose needed to completely inhibit STAT3 phosphorylation” value turned out to be 100 µM.
